Reference: paper PMC11068671, “New-generation biofilm effective antimicrobial peptides and a real-time anti-biofilm activity assay: CoMIC” (Applied Microbiology and Biotechnology, 2024)
Converted amounts (≈) assume the structure as drawn. Non-standard residues stand in square brackets, D forms with d. Residues, ends and D or L forms follow the SMILES beside them. No end group written: not given here.

How the values were obtained:
Staphylococcus aureus = tested on: Staphylococcus aureus; set-up: method as in Dean et al. [2011]; conditions: ref Dean et al. [2011]; cited from earlier work
erythrocytes = type: cell-based
Experimental: Hemolytic activity assays were carried out using erythrocytes, using triton X-100 as lysis control agent. Hemolytic activities were analyzed by reading each well with a plate reader spectrophotometer device at 414 nm and the % lysis rate was calculated in Microsoft Excel according to the following formula (Eren et al. [2008]). Lysis%=[OD414-OD414blank]/[OD414totallysis-OD414blank]×100

S. aureus ATCC29213 = type: cell-based
Source text: (§1) NET1, NET2, NET3, and NET4 peptide antibiotics were used in the experiments. For the purpose of the study, both clinical isolates Methicillin-Resistant S. aureus (MRSA), Vancomycin-resistant Enterococcus (VRE), E. coli ER2566, E. coli 13846 bacteria and ATCC strains S. aureus and E. coli bacteria were used in the MIC study. All strains used in this study have been deposited in a strain collection of the Research Laboratory of Acibadem Mehmet Ali Aydinlar University. For experiment 0.5 McFarland bacterial suspension was prepared in Müeller Hinton Broth (MHB) media. In the 96-well plate, serial dilutions of peptide antibiotics starting from 512 to 0 μg/mL were made in MHB media and added 5 µl of bacterial suspensions. After incubated overnight at 37°C, results were evaluated according to turbidity (Teh et al. [2017]). Ampicillin was used as positive controls.

E. coli ATCC25922 = type: cell-based
Source text: as §1

S. aureus ATCC25923 = type: cell-based
Source text: as §1

E. coli NTCC13846 = type: cell-based
Source text: as §1

E. coli ER2566 = type: cell-based
Source text: as §1

Proteinase K = Proteinase K (Parengyodontium album, UniProt P06873); experiment: Protease resistance, Proteinase K treatment with HPLC analysis; type: in vitro ADME; conditions: analytical HPLC
Experimental: Proteinase K was used for testing the resistance of the designed peptides to proteases, since Proteinase K, a serine protease with broad-spectrum cleavage activity that preferentially cleaves aliphatic and aromatic amino acid residues, is widely used in the literature to determine the protease resistance of antimicrobial peptides (Lucio et al. [2017], Wang et al. [2019]). Afterwards, HPLC characterization was performed to understand the effect of Proteinase K on peptides.

E. coli = experiment: SEM of cell membrane integrity; type: cell-based; conditions: 16 µg/mL peptide, 10^5 CFU/mL, 37°C, 4–5 h
Experimental: The effect of NET1 peptides on the integrity of E. coli cell membranes was shown by SEM (Wang et al. [2018]). […] Peptide molecules were mixed with 10^5 CFU/mL of E. coli and incubated at 37°C for 4–5 h. […] After incubation, 20 µL of the mixture containing peptide antibiotics and bacteria was applied to a dialysis membrane. Then, it was fixed and imaged by the SEM microscope. As a negative control, bacteria which was not treated with peptide molecules were also used.

MRSA = type: cell-based, Methicillin-Resistant S. aureus
Source text: as §1

MRSA biofilm [1] = experiment: Antibiofilm activity, conventional crystal violet (CV) method; type: cell-based, Methicillin-resistant S. aureus
Experimental: There was 90 µL of 10^6 CFU/mL MRSA in MHB media with fructose transferred into wells. Then, 10 µL of 1:2 serial dilutions of the antimicrobial peptides (1280–0 µg/mL) was added in wells. So that, final concentrations of peptides were 128–0 µg/mL. Plates were incubated at 37°C overnight. After overnight incubation, they were analyzed with conventional CV method. For this purpose, the bacterial cultures were removed, and wells were washed with distilled water. 200 µl of 1% CV dye was added to each well and incubated at room temperature for 15 min in the dark. Then, CV dye was removed, and wells were washed with water. After dried the plate in an oven at 45–50°C, 33% acetic acid was added into wells to dissolve the dye and wells were spectrophotometrically read by Varioscan (Thermo, USA) at 590 nm (Stepanović et al. [2000]). Biofilm inhibiton rates (%) were calculated by the following formula (Liu et al. [2021]): (1-A590ofwellstreatedwithpeptides/[…])×100
Before this calculation, the values obtained from all wells were subtracted from the value from the empty wells (Blank).

HaCaT cell line = experiment: in vitro; type: cell-based
Source text: (§2) MTT Cell Proliferation Kit (Sigma), a colorimetric method, was used for this test to evaluate the damage that peptides can cause in eukaryotic cells and all cell lines used in this study have been deposited in a collection of the Research Laboratory of Acibadem Mehmet Ali Aydinlar University. The cell lines of 3T3 (ATCC CRL-1658) and HaCaT (ATCC PCS-200-011) were revived under appropriate culture conditions and made ready for the experiment. The final concentration of peptides reached 64 to 0.5 μg/mL. Samples were worked in triplicates for each concentration. Cells incubated without peptide-treatment under the same conditions were used as a control. Magainin II, a known natural AMP that has no cytotoxic effects, was used as a positive control (Bacalum and Radu [2015]). The results were analyzed by reading them with a 96-well plate reader at 550 and 690 nm.

in vitro = type: cell-based
Source text: as §2

3T3 cell line = experiment: in vitro; type: cell-based
Source text: as §2

VRE = type: cell-based, Vancomycin-resistant Enterococcus
Source text: as §1

MRSA biofilm [2] = experiment: Antibiofilm activity, CoMIC method; type: cell-based, Methicillin-resistant S. aureus; conditions: peptides added just before the start of biofilm formation
Experimental: Ninety microliters of 0.5 McF Methicillin-resistant S. aureus (MRSA) (1.5×10^8 CFU/mL) in Congo Red Broth media with fructose was transferred into wells. Plates were incubated at 37°C. At the time just before the start of biofilm formation as optimized in Fig. 4, 10 µL of 1:2 serial dilutions of the antimicrobial peptides (2560–0 µg/mL) was added in wells. So that, final concentrations of peptides were 256–0 µg/mL. Incubation of media continued overnight. Then, wells were evaluated according to their black color formation.

Proteinase K, sequence (P06873 106-384): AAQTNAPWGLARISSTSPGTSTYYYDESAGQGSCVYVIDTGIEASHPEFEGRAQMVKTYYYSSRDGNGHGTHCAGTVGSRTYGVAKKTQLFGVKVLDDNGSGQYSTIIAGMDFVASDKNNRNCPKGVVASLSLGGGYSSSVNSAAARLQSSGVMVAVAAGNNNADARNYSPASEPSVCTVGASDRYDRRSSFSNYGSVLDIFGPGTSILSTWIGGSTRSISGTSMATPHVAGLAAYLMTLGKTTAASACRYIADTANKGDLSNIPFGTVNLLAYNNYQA

| Compound | activity of the D-form, times lower than L-form (Staphylococcus aureus) | HC50 value as times the MIC value (erythrocytes) | therapeutic index for hemolytic activities (erythrocytes) | MIC (S. aureus ATCC29213) | MIC (E. coli ATCC25922) | MIC (S. aureus ATCC25923) | MIC (E. coli NTCC13846) | MIC (E. coli ER2566) | resistance to proteases (HPLC after proteinase K treatment) (Proteinase K) | effect on E. coli cells seen by SEM (E. coli) | MIC (MRSA) | concentration that provided over 50% biofilm inhibition (MRSA biofilm [1]; CV method) | Peptide concentration inhibiting the biofilm at 100%, Crystal Violet (MRSA biofilm [1]; peptides added at the very beginning of culture) | IC50 value as times the MIC value (HaCaT cell line) | therapeutic index for cytotoxic activities (HaCaT cell line) | IC50 (in vitro; human) | IC50 (in vitro; mouse) | therapeutic index for cytotoxic activities (3T3 cell line) | MIC (VRE) | Peptide concentration inhibiting the biofilm at 100%, CoMIC (MRSA biofilm [2]) |
| --- | --- | --- | --- | --- | --- | --- | --- | --- | --- | --- | --- | --- | --- | --- | --- | --- | --- | --- | --- | --- |
| LL-37: LL-37 peptide, only D-form compared with only L-form in a cited study (LLGDFFRKSKEKIGKEFKRIVQRIKDFLRNLVPRTES; not fully specified; also: all-D and all-L forms; UniProt P49913 134-170, looked up) | 10 times |  |  |  |  |  |  |  |  |  |  |  |  |  |  |  |  |  |  |  |
| CC(C)C[C@@H](NC(=O)[C@H](CCCNC(=N)N)NC(=O)[C@@H](CC(C)C)NC(=O)[C@@H](CC(C)C)NC(=O)[C@@H](CC(C)C)NC(=O)[C@@H](N)CCCNC(=N)N)C(=O)N[C@H](CC(C)C)C(=O)N[C@@H](CCCNC(=N)N)C(=O)N[C@@H](CCCNC(=N)N)C(=O)N[C@H](CC(C)C)C(=O)N[C@H](CC(C)C)C(=O)N[C@@H](CCCNC(=N)N)C(=O)N[C@H](CC(C)C)C(=O)N[C@H](CC(C)C)C(=O)N[C@H](CC(C)C)C(=O)N[C@@H](CCCNC(=N)N)C(N)=O [NET1, RLLLRLLRRLLRLLLR-NH2] (H-R[dL][dL][dL]R[dL][dL]RR[dL][dL]R[dL][dL][dL]R-NH2; N-terminus assumed) |  | 16–32 times | 32 | 2 µg/mL (≈ 0.959 µM) | 2 µg/mL (≈ 0.959 µM) | 4 µg/mL (≈ 1.92 µM) | 4 µg/mL (≈ 1.92 µM) | <0.25 µg/mL | not fractionated by proteases | lethal to E. coli | 2 µg/mL (≈ 0.959 µM) | 2 µg/mL | 4 µg/mL | 16-32 times | 32 | 64 µg/mL (≈ 30.7 µM) | 32 µg/mL (≈ 15.3 µM) | 16 | 0.5 µg/mL (≈ 0.24 µM) | 64 µg/mL |
